Laboratory results reported in US6391576B1, “Method for isolating a microbe” (Japan Bioindustry Association, priority 1999, dated 2002).

Tested on: microorganisms in the activated sludge
Experiment: Colony formation on NUTRIENT BROTH agar plates inoculated with activated sludge cell dispersion
Assay type: cell-based
Conditions: 30° C.; for Growth of the microorganisms in the activated sludge (in words): 0.1 w/w % on plate
Protocol: Ten ml of activated sludge obtained from a food manufacturer's factory were filtered through gauze. The filtered activated sludge was stirred, subjected to ultra-sonics, added with a saline solution, and further stirred to allow cells to disperse well in the filtered activated sludge. The cell dispersion was diluted with a saline solution to 3×10^4 cells/ml as determined by staining with 6-carboxy-fluorescein diacetate (J. Porter et al. J. Appl. Bacteriol., Vol. 79, 399-408 (1995)).
The medium used was NUTRIENT BROTH (DIFICO), an 1:3 mixture of Bact Beef® and Bact Peptone®) added with 0.2% glucose and 2% agar. The medium was heat-sterilized and allowed to coagulate in plates. The plates were added with 0.1 w/w % of the compound shown in Table 3 and inoculated with 0.1 ml of the cell dispersion solution, and incubated at 30° C. After 2 or 10 days incubation, the number of colonies formed on the plates was counted.

[1] = 0.1 w/w % polysaccharide on plate
[2] = 0.1 w/w % cyclodextrin compound on plate, 0.1 ml cell dispersion

Pullulan
Colony/plate formed after incubation of 2 days [1]: 180 Colony/plate | Colony/plate formed after incubation of 10 days [1]: 600 Colony/plate

OC[C@H]1O[C@@H]2O[C@H]3[C@H](O)[C@@H](O)[C@@H](O[C@H]4[C@H](O)[C@@H](O)[C@@H](O[C@H]5[C@H](O)[C@@H](O)[C@@H](O[C@H]6[C@H](O)[C@@H](O)[C@@H](O[C@H]7[C@H](O)[C@@H](O)[C@@H](O[C@H]8[C@H](O)[C@@H](O)[C@@H](O[C@H]1[C@H](O)[C@H]2O)O[C@@H]8CO)O[C@@H]7CO)O[C@@H]6CO)O[C@@H]5CO)O[C@@H]4CO)O[C@@H]3CO [β-Cyclodextrin]
Colony/plate formed after incubation of 2 days [2]: 105 Colony/plate | Colony/plate formed after incubation of 10 days [2]: 350 Colony/plate

2-Hydroxypropyl-β-cyclodextrin
Colony/plate formed after incubation of 2 days [2]: 270 Colony/plate | Colony/plate formed after incubation of 10 days [2]: 710 Colony/plate | Growth of the microorganisms in the activated sludge (in words): promoted the growth

COC[C@H]1O[C@@H]2O[C@H]3[C@H](OC)[C@@H](OC)[C@@H](O[C@H]4[C@H](OC)[C@@H](OC)[C@@H](O[C@H]5[C@H](OC)[C@@H](OC)[C@@H](O[C@H]6[C@H](OC)[C@@H](OC)[C@@H](O[C@H]7[C@H](OC)[C@@H](OC)[C@@H](O[C@H]8[C@H](OC)[C@@H](OC)[C@@H](O[C@H]1[C@H](OC)[C@H]2OC)O[C@@H]8COC)O[C@@H]7COC)O[C@@H]6COC)O[C@@H]5COC)O[C@@H]4COC)O[C@@H]3COC [2,3,6-Tri-O-methyl-β-cyclodextrin]
Colony/plate formed after incubation of 2 days [2]: 220 Colony/plate | Colony/plate formed after incubation of 10 days [2]: 650 Colony/plate | Growth of the microorganisms in the activated sludge (in words): promoted the growth

COC[C@H]1O[C@@H]2O[C@H]3[C@H](O)[C@@H](OC)[C@@H](O[C@H]4[C@H](O)[C@@H](OC)[C@@H](O[C@H]5[C@H](O)[C@@H](OC)[C@@H](O[C@H]6[C@H](O)[C@@H](OC)[C@@H](O[C@H]7[C@H](O)[C@@H](OC)[C@@H](O[C@H]8[C@H](O)[C@@H](OC)[C@@H](O[C@H]1[C@H](O)[C@H]2OC)O[C@@H]8COC)O[C@@H]7COC)O[C@@H]6COC)O[C@@H]5COC)O[C@@H]4COC)O[C@@H]3COC [2,6-Di-O-methyl-β-cyclodextrin]
Colony/plate formed after incubation of 2 days [2]: 520 Colony/plate | Colony/plate formed after incubation of 10 days [2]: 1,060 Colony/plate | Growth of the microorganisms in the activated sludge (in words): promoted the growth

Dextran
Colony/plate formed after incubation of 2 days [1]: 146 Colony/plate | Colony/plate formed after incubation of 10 days [1]: 350 Colony/plate

OC[C@H]1O[C@@H]2O[C@H]3[C@H](O)[C@@H](O)[C@@H](O[C@H]4[C@H](O)[C@@H](O)[C@@H](O[C@H]5[C@H](O)[C@@H](O)[C@@H](O[C@H]6[C@H](O)[C@@H](O)[C@@H](O[C@H]7[C@H](O)[C@@H](O)[C@@H](O[C@H]1[C@H](O)[C@H]2O)O[C@@H]7CO)O[C@@H]6CO)O[C@@H]5CO)O[C@@H]4CO)O[C@@H]3CO [α-Cyclodextrin]
Colony/plate formed after incubation of 2 days [2]: 120 Colony/plate | Colony/plate formed after incubation of 10 days [2]: 320 Colony/plate

Glycogen
Colony/plate formed after incubation of 2 days [1]: 210 Colony/plate | Colony/plate formed after incubation of 10 days [1]: 830 Colony/plate

Glucomannan
Colony/plate formed after incubation of 2 days [1]: 190 Colony/plate | Colony/plate formed after incubation of 10 days [1]: 650 Colony/plate

Curdlan
Colony/plate formed after incubation of 2 days [1]: 220 Colony/plate | Colony/plate formed after incubation of 10 days [1]: 745 Colony/plate

Cellulose
Colony/plate formed after incubation of 2 days [1]: 244 Colony/plate | Colony/plate formed after incubation of 10 days [1]: 685 Colony/plate

OC[C@H]1O[C@@H]2O[C@H]3[C@H](O)[C@@H](O)[C@@H](O[C@H]4[C@H](O)[C@@H](O)[C@@H](O[C@H]5[C@H](O)[C@@H](O)[C@@H](O[C@H]6[C@H](O)[C@@H](O)[C@@H](O[C@H]7[C@H](O)[C@@H](O)[C@@H](O[C@H]8[C@H](O)[C@@H](O)[C@@H](O[C@H]9[C@H](O)[C@@H](O)[C@@H](O[C@H]1[C@H](O)[C@H]2O)O[C@@H]9CO)O[C@@H]8CO)O[C@@H]7CO)O[C@@H]6CO)O[C@@H]5CO)O[C@@H]4CO)O[C@@H]3CO [γ-Cyclodextrin]
Colony/plate formed after incubation of 2 days [2]: 210 Colony/plate | Colony/plate formed after incubation of 10 days [2]: 640 Colony/plate | Growth of the microorganisms in the activated sludge (in words): promoted the growth
